Source: patent US20250090996A1, “ACID GAS REMOVAL METHOD, ACID GAS ABSORBENT, AND ACID GAS REMOVAL APPARATUS” (KABUSHIKI KAISHA TOSHIBA, priority 2023, published 2025)

Columns and labels:
[1] = Amount of compound dissolved in water (total organic carbon of lower aqueous phase); assay type: physicochemical; details: 25° C., atmospheric pressure, converted from total organic carbon of lower phase
Source text: An acid gas absorbent according to the embodiment contains an amine compound and water, as main agents for absorbing an acid gas. The amine compound used here is a liquid amine compound having a secondary amine structure. An acid gas remover contains a mixture of the liquid amine compound and water, and an amount of a salt to be dissolved in water is larger than an amount of the liquid amine compound itself to be dissolved in water, the salt being formed from the liquid amine compound and the acid gas. Here, the liquid amine compound is an amine compound that is liquid at 25° C. under atmospheric pressure. An amount of the liquid amine compound to be dissolved at room temperature is generally small, and, for example, an amount of the liquid amine compound to be dissolved in water at 25° C. is 50,000 mg/L or less. Upon contact of the liquid amine compound with the acid gas, a salt is formed, and is ionized when water coexists, to increase the dissolved amount. The amount of such a salt to be dissolved is, for example, 2 times or more, preferably 5 times or more, and more preferably 10 times or more the amount of the liquid amine to be dissolved as a base at 25° C. In the present embodiment, the dissolved amount (mg/L) is a mass (mg) of the liquid amine based on a total volume (L) of water and the liquid amine compound.
(§1) When a compound (a-1) of General Formula (a) wherein R^1 and R^3 are 1-ethylpropyl groups and R^2 is C3 linear alkyl and water were blended at a mass ratio of 50:50, two phases of an organic phase (amine compound phase) as an upper phase and an aqueous phase as a lower phase were formed. […] The temperature in the column was changed in a range of 60° C. to 70° C., and an inert gas was caused to flow at 50 ml/min. […] Here, the amount of carbon dioxide saturated and absorbed is a value obtained by measuring the amount of inorganic carbon in the acid gas absorbent with an infrared gas concentration measuring apparatus. The amount of this compound dissolved was 18,000 mg/L at 25° C. and under atmospheric pressure. The amount of the compound dissolved was determined by sampling the lower phase of the two phases fractionated, measuring the total organic carbon concentration with a total organic carbon meter TOC-L (trade name) manufactured by Shimadzu Corporation, and converting it into the amount of amine dissolved from the chemical formula of the compound (a-1).

[2] = Phase state of amine/water mixture before and after carbon dioxide absorption; assay type: physicochemical; details: for phase state after absorbing carbon dioxide: mixture with water 50:50 after CO2:N2=1:9 bubbling; for phase state when blended with water: ratio 50:50, before carbon dioxide absorption, organic upper phase, aqueous lower phase
Source text: Here, in the present embodiment, the “state in which the organic phase and the aqueous phase are phase-separated” means that, for example, a mixture of water and a liquid amine has a relationship in which a state in which the organic phase and the aqueous phase are phase-separated, in other words, a boundary between the organic phase and the aqueous phase can be visually confirmed. Here, in the present embodiment, the organic phase is a phase containing the liquid amine compound as a main component in a state of being phase-separated, and is also a phase containing a high concentration of the liquid amine compound in a state of being separated from the acid gas. The aqueous phase is a phase containing water as a main component in a state of being phase-separated. At a high carbon dioxide concentration, the acid gas absorbent has an increased amount of the liquid amine compound to be dissolved in water, and the liquid amine compound is dissolved in an aqueous solution. In the acid gas absorbent, the organic phase and the aqueous phase are not phase-separated in this state (the acid gas absorbent has one phase). At a low acid gas concentration, the acid gas absorbent is decreased in solubility of the liquid amine compound in water, and is phase-separated into an aqueous phase and an organic phase containing a high concentration of the liquid amine compound. When the acid gas absorbent is phase-separated, the organic phase and the aqueous phase typically form complete two phases. However, in the present embodiment, even when it is not completely phase-separated, the organic phase and the aqueous phase are referred to as “two phases” in a case where a boundary between the phases can be confirmed.
Hereinafter, Examples of the embodiment will be described. In the following Examples, conditions before heating the acid gas absorbent were 25° C. and atmospheric pressure.
as §1

[3] = Regeneration (carbon dioxide release) on heated molecular sieve 4A column; details: column 60° C. to 70° C., inert gas 50 ml/min, fractionated
Procedure: as §1

[4] = S concentration of aqueous phase after adding sulfuric acid (ICP); assay type: physicochemical; details: 1 ml of 1 mol/l sulfuric acid added to 30 ml of mixture with water (volume ratio 50:50), after stirring
Procedure: When the compound (a-1) and water were blended at a volume ratio of 50:50, two phases of an organic phase as an upper phase and an aqueous phase as a lower phase were formed. One (1) ml of 1 mol/1 sulfuric acid was added to 30 ml of the mixture, and, after stirring, the S concentration of the aqueous phase was measured by ICP. As a result, the S concentration was 17.6 mg-S/L (Reference Example 1).

[5] = Phase state of amine/water mixture before and after carbon dioxide absorption; assay type: physicochemical; details: volume ratio 50:50

For `CCC(CC)NCCCNC(CC)CC` [compound (a-1)], the “amount of compound dissolved” value [1] was 18,000 mg/L, the “phase state after absorbing carbon dioxide” value [2] was “formed one phase” and the “phase state when blended with water” value [2] was “two phases”. The “phase state of mixture after passing through column” value (shortened to “phase state of mixture”) [3] was “two phases were formed”, the “S concentration of the aqueous phase” value [4] was 17.6 mg-S/L and the “phase state when blended with water” value [5] was “two phases”.

For `CC(C)CC(C)NCCCN(C)CCCNC(C)CC(C)C` (stereo not shown) [compound (b-2)], the “amount of compound dissolved” value [1] was 4,000 mg/L, the “phase state after absorbing carbon dioxide” value [2] was “formed one phase” and the “phase state when blended with water” value [2] was “two phases”. The “phase state of mixture” value [3] was “two phases were formed”.

With `CC(C)N(C)C(C)C` [diisopropylmethylamine, reference compound] the “phase state when blended with water” value [2] was “two phases”.

In the case of `CCC(CC)NCCCN(C)CCCNC(CC)CC` [compound (b-1)], the “amount of compound dissolved” value [1] is reported as 22,000 mg/L, the “phase state after absorbing carbon dioxide” value [2] is reported as “formed one phase” and the “phase state when blended with water” value [2] is reported as “two phases”. For the same molecule, the “phase state of mixture” value [3] was “two phases were formed”.

For `CC(C)CC(C)NCCCNCCCNC(C)CC(C)C` (stereo not shown) [compound (b-3)], the “amount of compound dissolved” value [1] was 11,000 mg/L, the “phase state after absorbing carbon dioxide” value [2] was “formed one phase” and the “phase state when blended with water” value [2] was “two phases”. For the same molecule, the “phase state of mixture” value [3] was “two phases were formed”.
